According to ChEMBL document CHEMBL1150219, “New co-metabolites of the streptazolin pathway” (2001):
Calls of active or inactive are those of the source. The rule behind the calls is not given here.

Columns and labels:
HMO2 = assay: Cytotoxicity against human HMO2 cells at 50 umol/L; format: functional, cell-based
HepG2 [1] = assay: Cytotoxicity against human HepG2 cells at 50 umol/L; format: functional, cell-based
MCF7 [2] = assay: Cytotoxicity against human MCF7 cells at 50 umol/L; format: functional, cell-based
[3] = Cytotoxicity against human HMO2 cells; format: functional
MCF7 [4] = assay: Cytotoxicity against human MCF7 cells; format: functional
[5] = Cytotoxicity against human KATO III cells; format: functional, KATO III cell
HepG2 [6] = assay: Cytotoxicity against human HepG2 cells; format: functional

Row | SMILES | Activity (HMO2) | Activity (HepG2 [1]) | Activity (MCF7 [2]) | GI50 [3] [µM] | TGI [3] [µM] | GI50 (MCF7 [4]) [µM] | TGI (MCF7 [4]) [µM] | GI50 [5] [µM] | TGI [5] [µM] | GI50 (HepG2 [6]) [µM] | TGI (HepG2 [6]) [µM]
1 | C/C=C1/C2=CCCN3C(=O)O[C@H]([C@H]1O)[C@H]23 | inactive | inactive | inactive | – | – | – | – | – | – | – | –
2 | C/C=C1/C2=CCCN3C(=O)O[C@H]([C@H]1O[C@@H]1OC[C@@H](O)[C@H](O)[C@H]1O)[C@H]23 | – | – | – | 0.15 | > 50 | 10 | 30 | 0.7 | 1 | 0.3 | 5
